From ChEMBL document CHEMBL1201862, “PubChem BioAssay data set” (2004)
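Each compound was tested at five concentrations against cells in 96-well plates for 48 hours. At the GI50, growth is halved.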 Calls of active or inactive are those of the source. Cut-off read from the data, not from the text of the source: active = GI50 up to about 1.1 µM and inactive = higher.

What was measured:
Test in all cases: NCI tumour cell line growth inhibition, 48 h
RPMI-8226 = test system: RPMI-8226
NCI-H460 = test system: NCI-H460
SN12C = test system: SN12C
SF-295 = test system: SF-295
HT-29 = test system: HT-29
DLD-1 = test system: DLD-1
HCT-116 = test system: HCT-116
IGROV-1 = test system: IGROV-1
CCRF-CEM = test system: CCRF-CEM
HCC 2998 = test system: HCC 2998
ACHN = test system: ACHN
KM12 = test system: KM12
UACC-62 = test system: UACC-62
OVCAR-3 = test system: OVCAR-3
Malme-3M = test system: Malme-3M
OVCAR-8 = test system: OVCAR-8
OVCAR-5 = test system: OVCAR-5
OVCAR-4 = test system: OVCAR-4
XF498 = test system: XF498
HOP-62 = test system: HOP-62
SK-MEL-5 = test system: SK-MEL-5
NCI-H522 = test system: NCI-H522
M14 = test system: M14
SK-OV-3 = test system: SK-OV-3
SK-MEL-2 = test system: SK-MEL-2
KM-20L2 = test system: KM-20L2
HCT-15 = test system: HCT-15
CAKI-1 = test system: CAKI-1
HOP-92 = test system: HOP-92
RXF 631 = test system: RXF 631
UO-31 = test system: UO-31
DMS-114 = test system: DMS-114
UACC-257 = test system: UACC-257
K562 = test system: K562
NCI-H226 = test system: NCI-H226
SNB-75 = test system: SNB-75
HL-60 = test system: HL-60
SW-620 = test system: SW-620
LOX IMVI = test system: LOX IMVI
LXFL 529 = test system: LXFL 529
A549 = test system: A549
SNB-19 = test system: SNB-19
786-0 = test system: 786-0
SF-268 = test system: SF-268
A498 = test system: A498
MOLT-4 = test system: MOLT-4
RXF 393 = test system: RXF 393
COLO 205 = test system: COLO 205
SK-MEL-28 = test system: SK-MEL-28
U-251 = test system: U-251
M19-MEL = test system: M19-MEL
TK-10 = test system: TK-10
DMS-273 = test system: DMS-273
SF-539 = test system: SF-539
SNB-78 = test system: SNB-78
EKVX = test system: EKVX
HOP-18 = test system: HOP-18
NCI-H23 = test system: NCI-H23

In the case of `CN1C[C@@H]2CC(=O)CC[C@@H]2C[C@H]1C#N`, the GI50 (RPMI-8226) is reported as > 100 µM (inactive), the GI50 (NCI-H460) is reported as > 100 µM (inactive) and the GI50 (SN12C) is reported as > 100 µM (inactive). For the same compound, the GI50 (SF-295) was > 100 µM (inactive), the GI50 (HT-29) was > 100 µM (inactive) and the GI50 (DLD-1) was > 100 µM (inactive). The GI50 (HCT-116) was > 100 µM (inactive), the GI50 (IGROV-1) was > 100 µM (inactive) and the GI50 (CCRF-CEM) was > 100 µM (inactive). For the same compound, the GI50 (HCC 2998) was > 100 µM (inactive), the GI50 (ACHN) was > 100 µM (inactive) and the GI50 (KM12) was > 100 µM (inactive). The GI50 (UACC-62) was > 100 µM (inactive), the GI50 (OVCAR-3) was > 100 µM (inactive) and the GI50 (Malme-3M) was > 100 µM (inactive). The GI50 (OVCAR-8) was > 100 µM (inactive), the GI50 (OVCAR-5) was > 100 µM (inactive) and the GI50 (OVCAR-4) was > 100 µM (inactive). For the same compound, the GI50 (XF498) was > 100 µM (inactive), the GI50 (HOP-62) was > 100 µM (inactive) and the GI50 (SK-MEL-5) was > 100 µM (inactive). For the same compound, the GI50 (NCI-H522) was > 100 µM (inactive), the GI50 (M14) was > 100 µM (inactive) and the GI50 (SK-OV-3) was > 100 µM (inactive). The GI50 (SK-MEL-2) was > 100 µM (inactive), the GI50 (KM-20L2) was > 100 µM (inactive) and the GI50 (HCT-15) was > 100 µM. For the same compound, the GI50 (CAKI-1) was > 100 µM (inactive), the GI50 (HOP-92) was > 100 µM (inactive) and the GI50 (RXF 631) was > 100 µM (inactive). The GI50 (UO-31) was > 100 µM (inactive), the GI50 (DMS-114) was > 100 µM (inactive) and the GI50 (UACC-257) was > 100 µM (inactive). The GI50 (K562) was > 100 µM (inactive), the GI50 (NCI-H226) was > 100 µM (inactive) and the GI50 (SNB-75) was > 100 µM (inactive). The GI50 (HL-60) was > 100 µM (inactive), the GI50 (SW-620) was > 100 µM (inactive) and the GI50 (LOX IMVI) was > 100 µM (inactive). The GI50 (LXFL 529) was > 100 µM (inactive), the GI50 (A549) was > 100 µM (inactive) and the GI50 (SNB-19) was > 100 µM (inactive). The GI50 (786-0) was > 100 µM (inactive), the GI50 (SF-268) was > 100 µM (inactive) and the GI50 (A498) was > 100 µM (inactive). The GI50 (MOLT-4) was > 100 µM (inactive).

In the case of `COC(=O)C(=Cc1cc(OC)ccc1OC)C(=O)OC`, the GI50 (RPMI-8226) is reported as 25.9 µM (inactive), the GI50 (NCI-H460) is reported as 30.8 µM (inactive) and the GI50 (SN12C) is reported as 24.9 µM (inactive). For the same compound, the GI50 (SF-295) was 28.2 µM (inactive), the GI50 (HT-29) was 21.8 µM (inactive) and the GI50 (RXF 393) was 16 µM (inactive). The GI50 (COLO 205) was 18.2 µM (inactive), the GI50 (DLD-1) was 29 µM (inactive) and the GI50 (IGROV-1) was 25.5 µM (inactive). The GI50 (CCRF-CEM) was 20 µM (inactive), the GI50 (HCC 2998) was 19.1 µM (inactive) and the GI50 (ACHN) was 17.3 µM (inactive). The GI50 (KM12) was 20.6 µM (inactive), the GI50 (SK-MEL-28) was 23.6 µM (inactive) and the GI50 (UACC-62) was 20.9 µM (inactive). The GI50 (OVCAR-3) was 21.2 µM (inactive), the GI50 (Malme-3M) was 26.9 µM (inactive) and the GI50 (OVCAR-8) was 30 µM (inactive). The GI50 (OVCAR-5) was 28.2 µM (inactive), the GI50 (U-251) was 19.8 µM (inactive) and the GI50 (OVCAR-4) was 20.3 µM (inactive). For the same compound, the GI50 (XF498) was 25.5 µM (inactive), the GI50 (M19-MEL) was 22 µM (inactive) and the GI50 (TK-10) was 36.3 µM (inactive). The GI50 (HOP-62) was 27.5 µM (inactive), the GI50 (SK-MEL-5) was 19.1 µM (inactive) and the GI50 (NCI-H522) was 15.1 µM (inactive). For the same compound, the GI50 (M14) was 15.3 µM (inactive), the GI50 (SK-OV-3) was 31.5 µM (inactive) and the GI50 (SK-MEL-2) was 22.1 µM (inactive). The GI50 (DMS-273) was 32.3 µM (inactive), the GI50 (HCT-15) was 25.2 µM and the GI50 (SF-539) was 24.7 µM (inactive). The GI50 (CAKI-1) was 18.9 µM (inactive), the GI50 (HOP-92) was 19.2 µM (inactive) and the GI50 (RXF 631) was 32 µM (inactive). For the same compound, the GI50 (UO-31) was 23 µM (inactive), the GI50 (DMS-114) was 20.8 µM (inactive) and the GI50 (UACC-257) was 14.1 µM (inactive). For the same compound, the GI50 (SNB-78) was 34.1 µM (inactive), the GI50 (K562) was 18 µM (inactive) and the GI50 (EKVX) was 33.7 µM (inactive). For the same compound, the GI50 (NCI-H226) was 53.6 µM (inactive), the GI50 (SNB-75) was 19.9 µM (inactive) and the GI50 (HL-60) was 21.8 µM (inactive). The GI50 (SW-620) was 23.7 µM (inactive), the GI50 (LOX IMVI) was 18.2 µM (inactive) and the GI50 (LXFL 529) was 16.6 µM (inactive). The GI50 (A549) was 31 µM (inactive), the GI50 (SNB-19) was 44 µM (inactive) and the GI50 (786-0) was 23.4 µM (inactive). The GI50 (SF-268) was 34.2 µM (inactive) and the GI50 (MOLT-4) was 27.4 µM (inactive).

With `O=C(OC1CC(n2cc(F)c(=O)[nH]c2=O)OC1CSC(=O)c1ccccc1)c1ccccc1` (stereo not drawn) the GI50 (RPMI-8226) was 22.5 µM (inactive), the GI50 (NCI-H460) was 35.3 µM (inactive) and the GI50 (SN12C) was 28.1 µM (inactive). For the same compound, the GI50 (SF-295) was 33.7 µM (inactive), the GI50 (HT-29) was 17.8 µM (inactive) and the GI50 (RXF 393) was 27.3 µM (inactive). For the same compound, the GI50 (COLO 205) was 29.6 µM (inactive), the GI50 (DLD-1) was 33.8 µM (inactive) and the GI50 (HOP-18) was 33.3 µM (inactive). For the same compound, the GI50 (HCT-116) was 34.8 µM (inactive), the GI50 (IGROV-1) was 56.2 µM (inactive) and the GI50 (CCRF-CEM) was 37.2 µM (inactive). The GI50 (HCC 2998) was 4.85 µM (inactive), the GI50 (ACHN) was 34.6 µM (inactive) and the GI50 (KM12) was 27.4 µM (inactive). For the same compound, the GI50 (SK-MEL-28) was 48 µM (inactive), the GI50 (UACC-62) was 36.4 µM (inactive) and the GI50 (OVCAR-3) was 23.4 µM (inactive). For the same compound, the GI50 (Malme-3M) was 28.7 µM (inactive), the GI50 (OVCAR-8) was 34.8 µM (inactive) and the GI50 (OVCAR-5) was 61.8 µM (inactive). The GI50 (U-251) was 17.6 µM (inactive), the GI50 (OVCAR-4) was 16.6 µM (inactive) and the GI50 (M19-MEL) was 26.5 µM (inactive). For the same compound, the GI50 (TK-10) was > 100 µM (inactive), the GI50 (HOP-62) was 51.3 µM (inactive) and the GI50 (NCI-H522) was 19.5 µM (inactive). The GI50 (M14) was 28.1 µM (inactive), the GI50 (SK-OV-3) was > 100 µM (inactive) and the GI50 (SK-MEL-2) was 48.5 µM (inactive). The GI50 (KM-20L2) was 18.7 µM (inactive), the GI50 (HCT-15) was 34.2 µM and the GI50 (SF-539) was 36.5 µM (inactive). The GI50 (NCI-H23) was 26.4 µM (inactive), the GI50 (HOP-92) was 22.9 µM (inactive) and the GI50 (RXF 631) was 15.1 µM (inactive). For the same compound, the GI50 (UO-31) was 38.8 µM (inactive), the GI50 (DMS-114) was 37.3 µM (inactive) and the GI50 (UACC-257) was 29.2 µM (inactive). For the same compound, the GI50 (SNB-78) was 32.1 µM (inactive), the GI50 (K562) was 54.3 µM (inactive) and the GI50 (EKVX) was 33.3 µM (inactive). The GI50 (NCI-H226) was 31.3 µM (inactive), the GI50 (SNB-75) was 19.4 µM (inactive) and the GI50 (HL-60) was 23.3 µM (inactive). The GI50 (SW-620) was 30.8 µM (inactive), the GI50 (LOX IMVI) was 50.9 µM (inactive) and the GI50 (LXFL 529) was 90.8 µM (inactive). For the same compound, the GI50 (A549) was 29.2 µM (inactive), the GI50 (SNB-19) was 59.7 µM (inactive) and the GI50 (786-0) was 32.1 µM (inactive). For the same compound, the GI50 (SF-268) was 25.4 µM (inactive), the GI50 (A498) was 41.6 µM (inactive) and the GI50 (MOLT-4) was 25.7 µM (inactive).
